{"source": "paper PMC2897950", "about": "(Cellular microbiology, 2010)", "biological_target": "T1, EhSir2a (EhSir2a-HH) (Entamoeba histolytica, UniProt C4LSH3)", "T1 sequence (C4LSH3 1-383)": "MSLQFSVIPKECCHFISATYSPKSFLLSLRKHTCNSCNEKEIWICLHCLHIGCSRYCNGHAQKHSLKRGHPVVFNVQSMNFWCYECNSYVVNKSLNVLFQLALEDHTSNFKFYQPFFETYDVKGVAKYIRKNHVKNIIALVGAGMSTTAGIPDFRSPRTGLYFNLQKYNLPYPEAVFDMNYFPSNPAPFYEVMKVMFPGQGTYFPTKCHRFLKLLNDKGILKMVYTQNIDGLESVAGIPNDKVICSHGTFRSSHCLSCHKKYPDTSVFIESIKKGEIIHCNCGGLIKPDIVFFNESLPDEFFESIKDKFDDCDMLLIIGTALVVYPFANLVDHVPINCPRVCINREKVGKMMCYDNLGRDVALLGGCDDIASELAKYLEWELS", "experiment": "fluorescent deacetylase assay", "type": "biochemical", "details": "500 µM NAD+, 37 °C, 2 h; co-substrate of deacetylation", "data": [{"smiles": "NC(=O)c1ccc[n+]([C@@H]2O[C@H](COP(=O)(O)OP(=O)(O)OC[C@H]3O[C@@H](n4cnc5c(N)ncnc54)[C@H](O)[C@@H]3O)[C@@H](O)[C@H]2O)c1", "note": "[NAD^+]", "values": [{"measurement": "fluorescent deacetylase assay (Biomol kit), enzyme on Ni-NTA beads", "result": "EhSir2a showed high levels of deacetylase activity when NAD^+ was added"}]}]}
